Measured values published in ChEMBL document CHEMBL1201862, “PubChem BioAssay data set” (2004).
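Growth conditions: 96-well plates. Treatment: test compound, 48 hours, 5 concentrations. Analysis: linear interpolation between bracketing concentrations; unreached endpoints set to highest concentration. GI50 = concentration required for 50% inhibition of growth.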 Active and inactive are the calls of the source. Rule as the data show it: active = GI50 up to about 1.1 µM and inactive = higher.

Legend:
Experiment in all cases: growth of human tumour cells (NCI), 48 h
786-0 = tested on: 786-0
A498 = tested on: A498
A549 = tested on: A549
ACHN = tested on: ACHN
CAKI-1 = tested on: CAKI-1
CCRF-CEM = tested on: CCRF-CEM
COLO 205 = tested on: COLO 205
DLD-1 = tested on: DLD-1
DMS-114 = tested on: DMS-114
DMS-273 = tested on: DMS-273
EKVX = tested on: EKVX
HCC 2998 = tested on: HCC 2998
HCT-116 = tested on: HCT-116
HCT-15 = tested on: HCT-15
HL-60 = tested on: HL-60
HOP-18 = tested on: HOP-18
HOP-62 = tested on: HOP-62
HOP-92 = tested on: HOP-92
HT-29 = tested on: HT-29
IGROV-1 = tested on: IGROV-1
K562 = tested on: K562
KM-20L2 = tested on: KM-20L2
KM12 = tested on: KM12
LOX IMVI = tested on: LOX IMVI
LXFL 529 = tested on: LXFL 529
M14 = tested on: M14
M19-MEL = tested on: M19-MEL
Malme-3M = tested on: Malme-3M
NCI-H226 = tested on: NCI-H226
NCI-H23 = tested on: NCI-H23
NCI-H460 = tested on: NCI-H460
NCI-H522 = tested on: NCI-H522
OVCAR-3 = tested on: OVCAR-3
OVCAR-4 = tested on: OVCAR-4
OVCAR-5 = tested on: OVCAR-5
OVCAR-8 = tested on: OVCAR-8
RPMI-8226 = tested on: RPMI-8226
RXF 393 = tested on: RXF 393
SF-268 = tested on: SF-268
SF-295 = tested on: SF-295
SF-539 = tested on: SF-539
SK-MEL-28 = tested on: SK-MEL-28
SK-MEL-2 = tested on: SK-MEL-2
SK-MEL-5 = tested on: SK-MEL-5
SK-OV-3 = tested on: SK-OV-3
SN12C = tested on: SN12C
SNB-19 = tested on: SNB-19
SNB-75 = tested on: SNB-75
SNB-78 = tested on: SNB-78
SR = tested on: SR
SW-620 = tested on: SW-620
TK-10 = tested on: TK-10
U-251 = tested on: U-251
UACC-257 = tested on: UACC-257
UACC-62 = tested on: UACC-62
UO-31 = tested on: UO-31
XF498 = tested on: XF498
MOLT-4 = tested on: MOLT-4

For O=C(NCc1ccccc1)c1cc2cc(O)c(O)cc2cn1, the GI50 (786-0) was 22.9 µM (inactive), the GI50 (A498) was 73.3 µM (inactive) and the GI50 (A549) was 29 µM (inactive). For the same compound, the GI50 (ACHN) was 12.5 µM (inactive), the GI50 (CAKI-1) was 35.6 µM (inactive) and the GI50 (CCRF-CEM) was 6.4 µM (inactive). For the same compound, the GI50 (COLO 205) was 34.8 µM (inactive), the GI50 (DLD-1) was 36.7 µM (inactive) and the GI50 (DMS-114) was 4.48 µM (inactive). For the same compound, the GI50 (DMS-273) was 4.7 µM (inactive), the GI50 (EKVX) was 41.3 µM (inactive) and the GI50 (HCC 2998) was 32.7 µM (inactive). For the same compound, the GI50 (HCT-116) was 30.3 µM (inactive), the GI50 (HCT-15) was 20 µM and the GI50 (HL-60) was 13.5 µM (inactive). For the same compound, the GI50 (HOP-18) was 13.8 µM (inactive), the GI50 (HOP-62) was 20 µM (inactive) and the GI50 (HOP-92) was 39.1 µM (inactive). The GI50 (HT-29) was 26.7 µM (inactive), the GI50 (IGROV-1) was 30.3 µM (inactive) and the GI50 (K562) was 12.1 µM (inactive). The GI50 (KM-20L2) was 29.4 µM (inactive), the GI50 (KM12) was 31.9 µM (inactive) and the GI50 (LOX IMVI) was 14.4 µM (inactive). For the same compound, the GI50 (LXFL 529) was 16 µM (inactive), the GI50 (M14) was 16.6 µM (inactive) and the GI50 (M19-MEL) was 20.1 µM (inactive). The GI50 (Malme-3M) was 34.6 µM (inactive), the GI50 (NCI-H226) was 26.9 µM (inactive) and the GI50 (NCI-H23) was 14 µM (inactive). The GI50 (NCI-H460) was 9.79 µM (inactive), the GI50 (NCI-H522) was 4.69 µM (inactive) and the GI50 (OVCAR-3) was 34.1 µM (inactive). The GI50 (OVCAR-4) was 25.5 µM (inactive), the GI50 (OVCAR-5) was 33.5 µM (inactive) and the GI50 (OVCAR-8) was 21.2 µM (inactive). For the same compound, the GI50 (RPMI-8226) was 24.6 µM (inactive), the GI50 (RXF 393) was 21 µM (inactive) and the GI50 (SF-268) was 14.4 µM (inactive). The GI50 (SF-295) was 24.3 µM (inactive), the GI50 (SF-539) was 29 µM (inactive) and the GI50 (SK-MEL-28) was 35.7 µM (inactive). For the same compound, the GI50 (SK-MEL-2) was 46.3 µM (inactive), the GI50 (SK-MEL-5) was 22.8 µM (inactive) and the GI50 (SK-OV-3) was 40.8 µM (inactive). For the same compound, the GI50 (SN12C) was 31.2 µM (inactive), the GI50 (SNB-19) was 46.9 µM (inactive) and the GI50 (SNB-75) was 23.8 µM (inactive). The GI50 (SNB-78) was 50.5 µM (inactive), the GI50 (SR) was 13.8 µM (inactive) and the GI50 (SW-620) was 42.6 µM (inactive). The GI50 (TK-10) was 39.9 µM (inactive), the GI50 (U-251) was 17.5 µM (inactive) and the GI50 (UACC-257) was 26.9 µM (inactive). For the same compound, the GI50 (UACC-62) was 16.6 µM (inactive), the GI50 (UO-31) was 18.1 µM (inactive) and the GI50 (XF498) was 28.4 µM (inactive).
With CC(=O)NC1=C(C)C(=O)c2c(nc3n2CCC3O)C1=O (stereo not given) the GI50 (786-0) was 43.4 µM (inactive), the GI50 (A498) was > 100 µM (inactive) and the GI50 (A549) was > 64 µM (inactive). For the same compound, the GI50 (ACHN) was > 100 µM (inactive), the GI50 (CAKI-1) was > 100 µM (inactive) and the GI50 (CCRF-CEM) was 4.24 µM (inactive). For the same compound, the GI50 (COLO 205) was > 100 µM (inactive), the GI50 (DLD-1) was 39.5 µM (inactive) and the GI50 (DMS-114) was 5.56 µM (inactive). For the same compound, the GI50 (DMS-273) was 44.8 µM (inactive), the GI50 (EKVX) was 24.7 µM (inactive) and the GI50 (HCC 2998) was 54 µM (inactive). The GI50 (HCT-116) was 23.7 µM (inactive), the GI50 (HCT-15) was greater than 100 µM and the GI50 (HL-60) was 8.28 µM (inactive). The GI50 (HOP-18) was > 100 µM (inactive), the GI50 (HOP-62) was > 100 µM (inactive) and the GI50 (HOP-92) was 18.6 µM (inactive). The GI50 (HT-29) was > 100 µM (inactive), the GI50 (IGROV-1) was > 54.2 µM (inactive) and the GI50 (K562) was 19.1 µM (inactive). The GI50 (KM-20L2) was > 72.1 µM (inactive), the GI50 (KM12) was > 100 µM (inactive) and the GI50 (LOX IMVI) was 29.7 µM (inactive). The GI50 (LXFL 529) was 19.6 µM (inactive), the GI50 (M14) was > 100 µM (inactive) and the GI50 (M19-MEL) was 25.6 µM (inactive). The GI50 (MOLT-4) was 3.44 µM (inactive), the GI50 (Malme-3M) was 19.1 µM (inactive) and the GI50 (NCI-H226) was 27.4 µM (inactive). The GI50 (NCI-H23) was 35.4 µM (inactive), the GI50 (NCI-H460) was > 87.7 µM (inactive) and the GI50 (NCI-H522) was 23.7 µM (inactive). For the same compound, the GI50 (OVCAR-3) was 10.8 µM (inactive), the GI50 (OVCAR-4) was 13.6 µM (inactive) and the GI50 (OVCAR-5) was > 64.3 µM (inactive). The GI50 (OVCAR-8) was 20.4 µM (inactive), the GI50 (RPMI-8226) was 18.2 µM (inactive) and the GI50 (RXF 393) was 21.5 µM (inactive). The GI50 (SF-268) was 34.8 µM (inactive), the GI50 (SF-295) was > 100 µM (inactive) and the GI50 (SF-539) was 24.4 µM (inactive). For the same compound, the GI50 (SK-MEL-28) was > 76.4 µM (inactive), the GI50 (SK-MEL-2) was 19.5 µM (inactive) and the GI50 (SK-MEL-5) was 51.9 µM (inactive). For the same compound, the GI50 (SK-OV-3) was > 61.7 µM (inactive), the GI50 (SN12C) was 37.3 µM (inactive) and the GI50 (SNB-19) was > 100 µM (inactive). The GI50 (SNB-75) was > 100 µM (inactive), the GI50 (SNB-78) was 31.3 µM (inactive) and the GI50 (SR) was 9.46 µM (inactive). The GI50 (SW-620) was 44.4 µM (inactive), the GI50 (TK-10) was > 100 µM (inactive) and the GI50 (U-251) was 33.1 µM (inactive). The GI50 (UACC-257) was 26.3 µM (inactive), the GI50 (UACC-62) was 20.1 µM (inactive) and the GI50 (UO-31) was > 100 µM (inactive). For the same compound, the GI50 (XF498) was 18.2 µM (inactive).
